Patent US20210338661A1, “NEW USES OF A PURE 5-HT 6 RECEPTOR ANTAGONIST” (SUVEN LIFE SCIENCES LIMITED, priority 2017, published 2021)

What was measured:
Aged rats = assay: Morris water maze task in aged rats (in vivo model for senile dementia); parameters: species or system rat; settings: 10 mg/kg, p.o.
Procedure: Morris Water Maze Task (In Vivo Model for Senile Dementia): The water maze apparatus consisted of a circular pool (1.8 m diameter, 0.6 m high) constructed in black perspex (TSE, systems, Germany) filled with water (24° C.). The maze was positioned underneath a wide-angled video camera. A 16 cm diameter perspex platform, lying 1 cm below the water surface, was placed in the center of one of the four imaginary quadrants, which remained constant for all rats. The maze offered no intra-maze cues to guide the escape behavior, however, the training room offered several strong extra maze visual cues to aid escape learning. An automated tracking system (Videomot 2 (5.51), TSE systems, Germany) was employed to track animal and record the parameters. […] Aged rats (˜80 weeks old) were placed facing the wall of the maze and lowered gently, feet first into water. Rats were allowed to swim for 60 seconds to find the platform. If the platform was found during this time, the trial was stopped and rat was allowed to stay on platform for 10 seconds before being removed from the maze. If the platform was not found during the 60 seconds trial, rat was guided to the platform and allowed to stay on platform for 10 seconds before being removed from the maze. The rats were taken off the platform ensuring that the rat see the investigator's hand from the front before removal. They were dried gently with a towel. Each rat received 4 trials in a day. The maze has 8 starting points. On the first, third and fifth day the animals started from 1st, 3rd, 5th and 7th starting point and on the second and fourth day the animals started from 2nd, 4th, 6th and […]. […] Retention of the task was assessed on 10th day, during which each animal received a single 30 seconds probe trial. […] Latency to reach the platform (s), swim speed (cm/s) and path length (cm) were recorded during acquisition trials. Percentage time spent in target quadrant (quadrant in which platform was placed during acquisition training) and swim speed (cm/s) were recorded for the probe trial.

BCCL rats = assay: Contextual fear conditioning in bilateral common carotid artery ligated rats (in vivo model for vascular dementia); parameters: species or system rat; settings: 3 and 10 mg/kg, p.o., 60 min post dose, FIG. 5
Source text: Contextual Fear Conditioning (In Vivo Model for Vascular Dementia): Male Wistar rats of age 2-3 months were used. Rats were induced vascular dementia by surgical procedure, which involves bilateral common carotid artery ligation (BCCL). Briefly, rats were anaesthetized using 2-5% isoflurane gaseous anesthesia. A dorsal incision was made near the neck region and two bilateral common carotid arteries were exposed. Both the arteries were separated from their sheaths and vagal nerves, and permanently ligated using 4-0 silk sutures. Sham animals were subjected to surgery except for ligation. After an induction period of 14 days, rats were examined in fear conditioning task. On day 1, rats were placed in the behavioral chamber and allowed to acclimatize for 1 min. Post acclimatization rats received a conditioned stimulus (CS) (tone for 10 sec) followed by an unavoidable foot shock (unconditioned stimulus (US): electric shock of 0.4 mA for 1 sec). Following a 40 sec interval between each administration, tone and shock were repeated to deliver a total of six CS-US pairings. […] After post dose interval of 60 min, animals were scored for the duration of freezing without shock stimulus. Shocking and scoring was controlled by Freeze frame software.

Male Wistar rats = assay: Object recognition task in doxorubicin-treated rats (in vivo model for chemotherapy-induced cognitive impairment); parameters: species or system rat; settings: DOX 2.5 mg/kg, i.p. treated male Wistar rats; SUVN-502 1 and 10 mg/kg, p.o.; FIG. 6
Procedure: Male Wistar rats (230-280 g) were used as experimental animals. Four animals were housed in each cage. Rats were acclimatized for 7 days (Days 1-7) to the laboratory conditions. Chemotherapy-induced cognitive impairment was induced by injecting doxorubicin (DOX) at 2.5 mg/kg, i.p. once in every 5 days up to 8 cycles (days 8-49). […] On experimental day 50, following 60 min of formulation dosing, animals were habituated to the arenas for 45 min. On day 51, animals were treated with their respective formulations 60 min prior to the familiarization trial (T1) during which rats was presented with two similar objects i.e., silver Milton flasks (a1 and a2) for 3 min. After an interval of 30 min, rats were subjected to choice trial (T2), with one familiar (silver, a3) and one novel (red, b) object for a period of 3 min. During the T1 and T2 trials, exploration time of each object (defined as sniffing, licking, chewing or having moving vibrissae whilst directing the nose towards the object at a distance of less than 1 cm) were recorded separately by hand held stop watch. • Reference: Behavioural Brain Research, 1988, 31, 47-59.

CD1 mice = assay: Resident intruder task (in vivo model for aggression due to dementia); parameters: species or system mouse; settings: 1, 3 and 10 mg/kg, p.o., 60 minutes prior to the trial, FIG. 4
Procedure: Resident Intruder Task (In Vivo Model for Aggression Due to Dementia): Male CD1 mice of weight 20-35 g (Resident), 15-25 g (Intruder) and ovariectomized female mice (20-25 g) were used. Resident mice were habituated individually with ovariectomized female mice in each cage. β-estradiol at a dose of 0.2 mg/kg, s.c. was administered to female mice during habituation. Intruders were habituated socially for 1 week. On day 1 and day 2, intruder was exposed to resident mice in resident's home cage for a period of 10 minutes and duration of attack was recorded. During this exposure period, female mice were removed from the cage. On day 4, animals were randomized based on their duration of attack and respective treatments were administered. […] After post dose interval, resident mice were exposed to same intruder for 10 min and duration of attack was recorded.

[1] = tested on: ovariectomized female Wistar rats; assay: Object recognition task in ovariectomized rats (in vivo model for dementia due to menopause); parameters: species or system rat; settings: SUVN-502 1, 3 and 10 mg/kg, p.o. one hour prior to evaluation, FIGS. 1 and 2
Procedure: Object Recognition Task (In Vivo Model for Dementia Due to Menopause) Bilateral ovariectomy surgery was carried out in 7-8 weeks old female rats. Briefly, animals were anesthetized using Avertin (2,2,2-tri bromo ethanol) at 150 mg/kg, i.p. and were lay down on the surgery table. A midline incision was given on the dorsal region below the rib cage and 1 cm lateral to the either side of midline, a small incision was given on fascia to locate the adipose fat supporting the ovaries. By slowly pulling out the fat tissue, the ovary is identified and excised following the uterine horn ligation with silk sutures. Fascia was also covered with sutures and the similar procedure was repeated on the other side. Superficial skin layers were sutured and gentamicin (15 mg/kg, s.c.) was given as antibiotic and meloxicam (1 mg/kg, i.m.) as analgesic with povidone iodine applied on superficial skin layers at last. Episodic memory which is a memory of autobiographical events contextual in relation to time, place etc. was assessed 4 weeks after the surgery using object recognition task. Object recognition task was carried out using black circular arenas (50 cm height×50 cm diameter) made of PVC laminates. […] Discriminative index was calculated as ratio of time spent exploring the novel object divided by sum of time spent exploring the novel object and familiar object in choice trial.

SMILES	path length versus vehicle treated group (Aged rats; aged rats (~80 weeks old), acquisition days 3, 4 and 5, p<0.05, p<0.01)	target latency versus vehicle treated group (Aged rats; aged rats, days 3, 4 and 5, statistically significant (p<0.05, p<0.01) only on day 3 and 5)	time in the target quadrant during the probe trial versus vehicle (Aged rats; aged rats, probe trial on 10th day, p<0.05)	memory (duration of freezing) (BCCL rats)	novel object recognition (exploration time, novel versus familiar object) (Male Wistar rats)	aggression levels (duration of attack) (CD1 mice)	effect on object memory deficits [1]
COc1ccc2c(c1)c(CN1CCN(C)CC1)cn2S(=O)(=O)c1ccccc1Br [SUVN-502, 1-[(2-Bromophenyl)sulfonyl]-5-methoxy-3-[(4-methyl-1-piperazinyl)methyl]-1H-indole dimesylate monohydrate]	significantly lesser	also lesser	more time in the target quadrant	improved the memory	increased novel object recognition	decreased the aggression levels	reversed the object memory deficits
COc1cc2c(cc1OC)C(=O)C(CC1CCN(Cc3ccccc3)CC1)C2 (centres unmarked) [donepezil, reference compound]	–	–	–	–	–	–	did not reverse the object memory deficits
